{
  "source": "patent US20230150970A1",
  "about": "“AMINOPYRIMIDINE DERIVATIVES AND THEIR USE AS ARYL HYDROCARBON RECEPTOR MODULATORS” (DONG-A ST CO., LTD., priority 2020, published 2023)",
  "data": [
    {"molecular_target": "T1, AhR (Homo sapiens, UniProt P35869)", "T1 sequence (P35869 11-848)": "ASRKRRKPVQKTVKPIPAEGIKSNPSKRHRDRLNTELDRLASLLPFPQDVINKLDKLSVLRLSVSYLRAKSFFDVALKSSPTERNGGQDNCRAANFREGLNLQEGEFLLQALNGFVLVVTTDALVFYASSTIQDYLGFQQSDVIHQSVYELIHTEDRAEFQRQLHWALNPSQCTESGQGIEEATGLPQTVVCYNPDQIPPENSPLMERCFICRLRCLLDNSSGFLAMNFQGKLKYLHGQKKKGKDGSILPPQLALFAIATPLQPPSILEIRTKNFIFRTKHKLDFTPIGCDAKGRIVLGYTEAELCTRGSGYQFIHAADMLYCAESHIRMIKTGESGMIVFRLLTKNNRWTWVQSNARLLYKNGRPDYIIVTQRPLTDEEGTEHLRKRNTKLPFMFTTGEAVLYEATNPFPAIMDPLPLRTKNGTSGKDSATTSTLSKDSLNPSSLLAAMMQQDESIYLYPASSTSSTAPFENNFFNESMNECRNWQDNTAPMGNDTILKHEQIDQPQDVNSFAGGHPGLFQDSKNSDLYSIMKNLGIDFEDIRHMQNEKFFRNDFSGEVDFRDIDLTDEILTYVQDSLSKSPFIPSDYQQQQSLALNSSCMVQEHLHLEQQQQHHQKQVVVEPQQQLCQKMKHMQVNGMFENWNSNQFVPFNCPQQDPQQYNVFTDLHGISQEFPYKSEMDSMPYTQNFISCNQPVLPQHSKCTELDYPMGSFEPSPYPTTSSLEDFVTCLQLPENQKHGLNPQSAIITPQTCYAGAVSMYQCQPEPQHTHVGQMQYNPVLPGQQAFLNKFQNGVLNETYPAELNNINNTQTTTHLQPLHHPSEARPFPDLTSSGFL", "assay": "In Vitro Assay 1: XRE-luciferase reporter assay, antagonism in human cell line (HepG2)", "conditions": "Assay 1: AhR-Luc Human Antagonism (IC50, nM), unmarked values: kynurenine 200 μM, 6 hours", "units": {"IC50": "nM"}, "values": [
      {"smiles": "CN(C)C1CC(O)CN(c2cc(-c3ccc(Cl)cc3)nc(-c3cccnc3)n2)C1", "note": "(stereo not shown) [Example 355, 1-(6-(4-chlorophenyl)-2-(pyridin-3-yl)pyrimidin-4-yl)-5-(dimethylamino)piperidin-3-ol]", "IC50": "100 to 1000"},
      {"smiles": "C=CS(=O)(=O)N1CCN(c2cc(-c3ccc(Cl)cc3)nc(-c3cccnc3)n2)CC1", "note": "[Example 306, 4-(4-chlorophenyl)-2-(pyridin-3-yl)-6-(4-(vinylsulfonyl)piperazin-1-yl)pyrimidine]", "IC50": "10 to 100"},
      {"smiles": "OC[C@H]1CN(c2cc(-c3ccc(Cl)cc3)nc(-c3cccnc3)n2)C[C@H]1O", "note": "[Example 255, (3S,4R)-1-(6-(4-chlorophenyl)-2-(pyridin-3-yl)pyrimidin-4-yl)-4-(hydroxymethyl)pyrrolidin-3-ol]", "IC50": "10 to 100"},
      {"smiles": "OCC1CCN(c2cc(-c3ccc4[nH]ncc4c3)nc(-c3cccnc3)n2)CC1", "note": "[Example 288, (1-(6-(1H-indazol-5-yl)-2-(pyridin-3-yl)pyrimidin-4-yl)piperidin-4-yl)methanol]", "IC50": "100 to 1000"},
      {"smiles": "CC(C)(C)OC(=O)N1CCN(c2cc(-c3ccc(Cl)cc3)nc(-c3cccnc3)n2)C[C@H]1CO", "note": "[Example 272, tert-butyl (S)-4-(6-(4-chlorophenyl)-2-(pyridin-3-yl)pyrimidin-4-yl)-2-(hydroxymethyl)piperazine-1-carboxylate]", "IC50": "10 to 100"},
      {"smiles": "OC[C@H]1CN(c2cc(-c3ccc(Cl)cc3)nc(-c3cccnc3)n2)C[C@@H]1O", "note": "[Example 257, (3R,4R)-1-(6-(4-chlorophenyl)-2-(pyridin-3-yl)pyrimidin-4-yl)-4-(hydroxymethyl)pyrrolidin-3-ol]", "IC50": "< 10"},
      {"smiles": "CS(=O)(=O)Nc1ccc(-c2cc(N3CCC(CO)CC3)nc(-c3cccnc3)n2)cc1", "note": "[Example 274, N-(4-(6-(4-(hydroxymethyl)piperidin-1-yl)-2-(pyridin-3-yl)pyrimidin-4-yl)phenyl)methanesulfonamide]", "IC50": "> 1000"},
      {"smiles": "Oc1ncccc1-c1nc(-c2ccc(C(F)(F)F)cc2)cc(N2CC[C@H](O)C2)n1", "note": "[Example 270, (S)-3-(4-(3-hydroxypyrrolidin-1-yl)-6-(4-(trifluoromethyl)phenyl)pyrimidin-2-yl)pyridin-2-ol]", "IC50": "< 10"},
      {"smiles": "OCC1CCN(c2cc(-c3c(F)cc(F)cc3F)nc(-c3cccnc3)n2)CC1", "note": "[Example 277, (1-(2-(pyridin-3-yl)-6-(2,4,6-trifluorophenyl)pyrimidin-4-yl)piperidin-4-yl)methanol]", "IC50": "100 to 1000"}
    ]},
    {"molecular_target": "T1, AhR", "assay": "In Vitro Assay 1: XRE-luciferase reporter assay, antagonism in human cell line (HepG2)", "conditions": "Assay 1: AhR-Luc Human Antagonism (IC50, nM), values marked *: kynurenine 50 μM, 6 hours", "units": {"IC50": "nM"}, "values": [
      {"smiles": "COC[C@@H]1CCCN1Nc1cc(-c2ccc(Cl)cc2)nc(-c2cccnc2)n1", "note": "[Example 195, (S)-6-(4-chlorophenyl)-N-(2-(methoxymethyl)pyrrolidin-1-yl)-2-(pyridin-3-yl)pyrimidin-4-amine]", "IC50": "> 1000"},
      {"smiles": "CC(C)[C@@H](CO)Nc1cc(-c2ccc(Cl)cc2)nc(-c2cccnc2)n1", "note": "[Example 13, (S)-2-((6-(4-chlorophenyl)-2-(pyridin-3-yl)pyrimidin-4-yl)amino)-3-methylbutan-1-ol]", "IC50": "> 1000"},
      {"smiles": "O=C1CCC(CNc2cc(-c3ccc(Cl)cc3)nc(-c3cccnc3)n2)N1", "note": "(stereo not shown) [Example 200, 5-(((6-(4-chlorophenyl)-2-(pyridin-3-yl)pyrimidin-4-yl)amino)methyl)pyrrolidin-2-one]", "IC50": "> 1000"},
      {"smiles": "O[C@@H](CNc1cc(-c2ccc(Cl)cc2)nc(-c2cccnc2)n1)c1ccccc1", "note": "[Example 17, (R)-2-((6-(4-chlorophenyl)-2-(pyridin-3-yl)pyrimidin-4-yl)amino)-1-phenylethan-1-ol]", "IC50": "> 1000"},
      {"smiles": "CC(C)(CO)Nc1nc(-c2ccc(Cl)cc2)cc(-c2cccnc2)n1", "note": "[Example 5, 2-((4-(4-chlorophenyl)-6-(pyridin-3-yl)pyrimidin-2-yl)amino)-2-methylpropan-1-ol]", "IC50": "> 1000"},
      {"smiles": "CC(O)C(C)Nc1cc(-c2ccc(Cl)cc2)nc(-c2cccnc2)n1", "note": "(stereo not shown) [Example 145, 3-((6-(4-chlorophenyl)-2-(pyridin-3-yl)pyrimidin-4-yl)amino)butan-2-ol]", "IC50": "100 to 1000"},
      {"smiles": "COCCN1CCN(c2cc(-c3ccc(Cl)cc3)nc(-c3cccnc3)n2)CC1", "note": "[Example 218, 4-(4-chlorophenyl)-6-(4-(2-methoxyethyl)piperazin-1-yl)-2-(pyridin-3-yl)pyrimidine]", "IC50": "< 10"}
    ]}
  ]
}
